Results on one compound are retold here after US20250354192A1, “METHODS FOR QUANTIFYING LIVE BACTERIA” (priority 2022, published 2025).

For this assay, the system named is Pseudomonas. The experiment in a line: Two-step labeling with EDA versus NADA-Green, PIPER counts relative to SYBR labeling. The settings on record: 1 mM EDA 30 minutes plus click reaction solution, compared with 1 mM NADA-Green 60-90 minutes. The class given is cell-based. The source says:
Universal labeling of all bacteria presents some challenges. D-amino acid analogs must first penetrate the outer membrane of gram-negative bacteria to be incorporated into peptidoglycan. The smaller size of the “clickable” D-amino acids compared to the FDAAs helps achieve higher labeling efficiency for some gram-negative bacteria. Accordingly, and for example, FIGS. 11A-B depict two-step labeling using the “clickable” D-amino acid, EDA, which improves detection of Pseudomonas. Log phase Pseudomonas growing at 37° C. in BHI (with [Supplemented BHI, red bars] or without [blue bars] supplementation with 50 mM glucose and 10 mM sodium pyruvate) was incubated for 60-90 minutes with 1 mM NADA-Green (Bio-Techne, Minneapolis, MN); or for 30 minutes in the presence or absence of 1 mM clickable D-amino acid, EDA (D-propargylglycine, AK Scientific, Union City, CA). For the unlabeled cells or cells labeled with NADA-Green, the cells were pelleted after incubation and resuspended in 1×PBS. For the cells grown in the presence or absence of EDA, the cells were pelleted after incubation by centrifugation (10 min 10,000 g), and supernatant was discarded. Bacteria were washed with 1 mL of 1× PBS, pelleted by centrifugation again (10 min 10,000 g), and supernatant was discarded. […]

Structures are written as SMILES.

`C#CC[C@@H](N)C(=O)O` [EDA, D-propargylglycine]: the “detection efficiency, cell counts relative to counts obtained by SYBR labeling” value is given as “Highest detection efficiency”.
